In patent US12662479B2 (Foghorn Therapeutics Inc., priority 2020, dated 2026):

Columns and labels:
[1] = target: T1, HiBit-BRM fusion protein (Homo sapiens, UniProt P51531); test: HiBiT-BRM cell-based degradation assay (Nano-Glo HiBiT Lytic Detection, 24 h); conditions: HeLa cells expressing HiBiT-BRM; for DC50: read-out: BRM HiBit Degradation IC50; for BRM HiBit Degradation Maximum measured: top dose 30 μM
T1 construct: expressed in transfected cells
Summary of the method: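 HeLa cells stably expressing HiBiT-BRM were treated for 24 h with compounds (10-point 3-fold dilutions, 30 μM final top dose, in duplicate). HiBiT was detected by lytic LgBiT complementation luminescence. % degradation was normalized to DMSO (high control) and 2 μM of a reference BRM/BRG1 degrader (low control).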

[2] = target: T2, HiBit-BRG1 fusion protein (Homo sapiens, UniProt P51532); test: HiBiT-BRG1 cell-based degradation assay (Nano-Glo HiBiT Lytic Detection, 24 h); conditions: HeLa cells expressing HiBit-BRG1 and LgBit; for DC50: read-out: BRG1 HiBit Degradation IC50; for Dmax: HeLa, top dose 30 μM, read-out: BRG1 HiBit Degradation Maximum measured
T2 construct: expressed in transfected cells
T2 sequence (P51532 whole entry, the tested form may be a part): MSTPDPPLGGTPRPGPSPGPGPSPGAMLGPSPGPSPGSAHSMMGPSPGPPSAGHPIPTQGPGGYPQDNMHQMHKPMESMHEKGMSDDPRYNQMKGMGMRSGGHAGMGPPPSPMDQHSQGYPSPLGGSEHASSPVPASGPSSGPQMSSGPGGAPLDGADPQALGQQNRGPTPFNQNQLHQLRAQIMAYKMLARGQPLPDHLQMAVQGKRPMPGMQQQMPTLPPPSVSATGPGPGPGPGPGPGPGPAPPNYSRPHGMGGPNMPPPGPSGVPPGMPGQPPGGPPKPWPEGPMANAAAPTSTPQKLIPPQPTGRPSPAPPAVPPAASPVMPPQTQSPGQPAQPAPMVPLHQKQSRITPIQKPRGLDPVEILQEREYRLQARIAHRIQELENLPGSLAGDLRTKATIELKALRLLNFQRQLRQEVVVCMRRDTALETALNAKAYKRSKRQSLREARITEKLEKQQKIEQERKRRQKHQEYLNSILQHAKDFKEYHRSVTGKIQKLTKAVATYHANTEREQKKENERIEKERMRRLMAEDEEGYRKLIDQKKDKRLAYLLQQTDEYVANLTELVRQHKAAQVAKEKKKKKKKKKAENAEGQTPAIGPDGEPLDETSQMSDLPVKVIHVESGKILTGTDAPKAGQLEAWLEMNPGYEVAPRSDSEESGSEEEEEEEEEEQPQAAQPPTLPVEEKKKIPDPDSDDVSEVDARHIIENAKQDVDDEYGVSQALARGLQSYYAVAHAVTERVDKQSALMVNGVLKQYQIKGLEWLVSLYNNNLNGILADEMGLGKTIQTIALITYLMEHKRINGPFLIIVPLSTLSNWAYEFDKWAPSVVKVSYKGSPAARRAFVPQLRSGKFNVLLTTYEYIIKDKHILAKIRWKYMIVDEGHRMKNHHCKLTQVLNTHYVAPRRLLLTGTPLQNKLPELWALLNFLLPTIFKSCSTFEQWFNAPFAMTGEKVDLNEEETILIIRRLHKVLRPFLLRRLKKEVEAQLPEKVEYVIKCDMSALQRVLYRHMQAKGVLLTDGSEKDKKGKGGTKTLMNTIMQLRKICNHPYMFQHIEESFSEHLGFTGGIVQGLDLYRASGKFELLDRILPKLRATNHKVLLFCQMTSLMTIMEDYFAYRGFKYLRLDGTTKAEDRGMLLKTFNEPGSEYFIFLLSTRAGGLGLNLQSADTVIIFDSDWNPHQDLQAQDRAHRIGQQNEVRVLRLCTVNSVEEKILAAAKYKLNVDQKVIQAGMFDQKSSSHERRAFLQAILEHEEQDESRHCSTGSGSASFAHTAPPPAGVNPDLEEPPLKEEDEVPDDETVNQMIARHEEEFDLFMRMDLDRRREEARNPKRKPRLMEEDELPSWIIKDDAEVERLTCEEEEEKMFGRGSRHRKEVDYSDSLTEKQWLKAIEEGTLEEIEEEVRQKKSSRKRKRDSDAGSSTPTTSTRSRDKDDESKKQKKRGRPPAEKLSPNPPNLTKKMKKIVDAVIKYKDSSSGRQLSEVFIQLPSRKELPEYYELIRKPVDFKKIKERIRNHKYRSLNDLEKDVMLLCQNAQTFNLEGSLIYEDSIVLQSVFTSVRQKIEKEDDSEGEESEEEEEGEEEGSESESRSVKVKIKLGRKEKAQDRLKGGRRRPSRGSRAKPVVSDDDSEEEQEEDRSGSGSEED
Summary of the method: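 Stable HeLa line expressing HiBiT-BRG1 and LgBiT, seeded at 5000 cells/well; luminescence read after lytic Nano-Glo HiBiT reagent and 10 min shaking at RT. % degradation normalised between DMSO (high control) and 2 μM reference BRM/BRG1 degrader (low control).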

T1 sequence (P51531 whole entry, the tested form may be a part): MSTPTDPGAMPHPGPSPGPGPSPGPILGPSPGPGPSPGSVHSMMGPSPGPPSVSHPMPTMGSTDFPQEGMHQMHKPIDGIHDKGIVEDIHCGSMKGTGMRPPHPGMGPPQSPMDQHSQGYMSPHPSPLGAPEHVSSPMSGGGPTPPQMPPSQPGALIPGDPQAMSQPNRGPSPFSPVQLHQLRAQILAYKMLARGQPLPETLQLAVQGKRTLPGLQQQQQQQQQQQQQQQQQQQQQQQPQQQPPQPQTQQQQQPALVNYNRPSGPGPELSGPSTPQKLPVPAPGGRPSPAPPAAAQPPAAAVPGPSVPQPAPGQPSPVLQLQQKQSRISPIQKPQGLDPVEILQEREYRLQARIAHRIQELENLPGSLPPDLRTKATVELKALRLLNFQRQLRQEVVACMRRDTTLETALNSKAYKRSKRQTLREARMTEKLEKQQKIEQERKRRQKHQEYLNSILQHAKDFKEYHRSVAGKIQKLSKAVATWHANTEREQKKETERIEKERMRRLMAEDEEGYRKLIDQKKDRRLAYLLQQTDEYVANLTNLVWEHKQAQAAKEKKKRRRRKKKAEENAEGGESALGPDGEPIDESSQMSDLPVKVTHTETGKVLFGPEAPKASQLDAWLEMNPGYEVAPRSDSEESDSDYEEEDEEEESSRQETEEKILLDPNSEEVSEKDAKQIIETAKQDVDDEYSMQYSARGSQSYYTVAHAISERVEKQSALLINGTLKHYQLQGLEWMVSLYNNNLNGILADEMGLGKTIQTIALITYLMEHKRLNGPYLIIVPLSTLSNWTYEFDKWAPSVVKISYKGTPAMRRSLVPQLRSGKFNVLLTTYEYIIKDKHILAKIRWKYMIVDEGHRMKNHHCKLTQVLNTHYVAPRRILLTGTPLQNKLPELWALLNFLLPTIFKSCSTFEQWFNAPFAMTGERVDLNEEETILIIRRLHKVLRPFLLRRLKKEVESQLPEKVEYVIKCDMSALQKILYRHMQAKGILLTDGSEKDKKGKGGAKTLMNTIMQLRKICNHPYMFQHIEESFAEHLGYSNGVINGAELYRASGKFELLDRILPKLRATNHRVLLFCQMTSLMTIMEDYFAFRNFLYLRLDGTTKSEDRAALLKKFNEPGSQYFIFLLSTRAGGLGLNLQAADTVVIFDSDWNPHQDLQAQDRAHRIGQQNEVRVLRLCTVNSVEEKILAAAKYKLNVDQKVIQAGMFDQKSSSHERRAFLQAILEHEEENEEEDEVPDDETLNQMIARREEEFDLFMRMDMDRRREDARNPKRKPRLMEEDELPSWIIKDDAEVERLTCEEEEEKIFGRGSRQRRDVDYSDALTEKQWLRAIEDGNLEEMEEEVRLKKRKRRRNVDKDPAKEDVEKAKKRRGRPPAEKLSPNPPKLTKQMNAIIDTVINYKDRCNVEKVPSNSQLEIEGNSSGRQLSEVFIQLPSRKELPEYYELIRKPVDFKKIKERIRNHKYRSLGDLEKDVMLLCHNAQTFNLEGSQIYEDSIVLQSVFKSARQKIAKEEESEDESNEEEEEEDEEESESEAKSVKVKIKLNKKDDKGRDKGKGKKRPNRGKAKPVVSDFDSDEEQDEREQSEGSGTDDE

SMILES | DC50 [1] | BRM HiBit Degradation Maximum measured [1] | DC50 [2] | Dmax [2]
CS(=O)(=O)n1ccc(C(=O)NCC(=O)Nc2nc(-c3cccc(-c4cccc(CNC(=O)CCCCCCCCNc5cccc6c5C(=O)N(C5CCC(=O)NC5=O)C6=O)c4)c3)cs2)c1 (centres unmarked) [Compound 20, N-(2-((4-(3′-((9-((2-(2,6-dioxopiperidin-3-yl)-1,3-dioxoisoindolin-4-yl)amino)nonanamido)methyl)-[1,1′-biphenyl]-3-yl)thiazol-2-yl)amino)-2-oxoethyl)-1-(methylsulfonyl)-1H-pyrrole-3-carboxamide] | > 10 µM | C (‘C’ = Maximum degradation <50%) | > 10 µM | 50 to 75%
Cc1ncsc1-c1ccc(CNC(=O)[C@@H]2C[C@@H](O)CN2C(=O)[C@@H](NC(=O)COCCOCCOCCNC(=O)CCCOC[C@H](NC(=O)c2ccn(S(C)(=O)=O)c2)C(=O)Nc2nc(-c3ccccc3)cs2)C(C)(C)C)cc1 [Compound 225, (2S,4R)-4-hydroxy-1-[(2S)-2-(2-[2-[2-(2-[4-[(2S)-2-[(1-methanesulfonylpyrrol-3-yl)formamido]-2-[(4-phenyl-1,3-thiazol-2-yl)carbamoyl]ethoxy]butanamido]ethoxy)ethoxy]ethoxy]acetamido)-3,3-dimethylbutanoyl]-N-[[4-(4-methyl-1,3-thiazol-5-yl)phenyl]methyl]pyrrolidine-2-carboxamide] | > 10 µM | C (‘C’ = Maximum degradation <50%) | > 10 µM | < 50%
Cc1ncsc1-c1ccc(CNC(=O)[C@@H]2C[C@@H](O)CN2C(=O)[C@@H](NC(=O)CN2CC(C(=O)NCc3cccc(-c4cccc(-c5csc(NC(=O)CNC(=O)c6ccn(S(C)(=O)=O)c6)n5)c4)c3)C2)C(C)(C)C)cc1 [Compound 157, (2S,4R)-4-hydroxy-1-[(2S)-2-[2-[3-([[3-(2-[2-[(1-methan-esulfonyl-pyrrol-3-yl)formamido]acetamido]-1,3-thiazol-4-yl)-[1,1-biphenyl]-3-yl]methyl]carbamoyl)azetidin-1-yl]acetamido]-3,3-dimethylbutanoyl]-N-[[4-(4-methyl-1,3-thiazol-5-yl)phenyl]methyl]pyrr-oledine-2-carboxamide] | > 10 µM | C (‘C’ = Maximum degradation <50%) | > 10 µM | < 50%
CS(=O)(=O)n1ccc(C(=O)NCC(=O)Nc2nc(-c3cccc(-c4ccnc(N5CCN(C(=O)C6CC6CNC(=O)COc6cccc7c6C(=O)N(C6CCC(=O)NC6=O)C7=O)CC5)c4)c3)cs2)c1 (centres unmarked) [Compound 32, N-[2-[[4-[3-[2-[4-[2-[[[2-[2-(2,6-dioxo-3-piperidyl)-1,3-dioxo-isoindolin-4-yl]oxyacetyl]amino]methyl]cyclopropanecarbonyl]piperazin-1-yl]-4-pyridyl]phenyl]thiazol-2-yl]amino]-2-oxo-ethyl]-1-methylsulfonyl-pyrrole-3-carboxamide] | > 10 µM | C (‘C’ = Maximum degradation <50%) | > 10 µM | < 50%
CS(=O)(=O)n1ccc(C(=O)NCC(=O)Nc2nc(-c3cccc(-c4ccnc(OCCNC(=O)C5CC5CNC(=O)COc5cccc6c5C(=O)N(C5CCC(=O)NC5=O)C6=O)c4)c3)cs2)c1 (centres unmarked) [Compound 37, N-[2-[[4-[3-[2-[2-[[2-[[[2-[2-(2,6-dioxo-3-piperidyl)-1,3-dioxoisoindolin-4-yl]oxyacetyl]amino]methyl]cyclopropanecarbonyl]amino]ethoxy]-4-pyridyl]phenyl]thiazol-2-yl]amino]-2-oxoethyl]-1-methylsulfonyl-pyrrole-3-carboxamide] | > 10 µM | C (‘C’ = Maximum degradation <50%) | > 10 µM | < 50%
CS(=O)(=O)n1ccc(C(=O)NCC(=O)Nc2nc(-c3cccc(-c4ccnc(C5(C(=O)NCC6CCN(CCOc7ccc8c(c7)C(=O)N(C7CCC(=O)NC7=O)C8=O)CC6)CC5)c4)c3)cs2)c1 (centres unmarked) [Compound 149, N-[[1-(2-[[2-(2,6-dioxopiperidin-3-yl)-1,3-dioxoisoindol-5-yl]oxy]ethyl)piperidin-4-yl]methyl]-1-[4-[3-(2-[2-[(1-methanesulfonylpyrrol-3-yl)formamido]acetamido]-1,3-thiazol-4-yl)phenyl]pyridin-2-yl]cyclopropane-1-carboxamide] | 0.1 to 1 µM | A (‘A’ = Maximum degradation >75%) | 0.1 to 1 µM | > 75%
Cc1ncsc1-c1ccc(CNC(=O)[C@@H]2C[C@@H](O)CN2C(=O)[C@@H](NC(=O)CN2CCC(C(=O)NCc3cccc(-c4cccc(-c5csc(NC(=O)CNC(=O)c6ccn(S(C)(=O)=O)c6)n5)c4)c3)CC2)C(C)(C)C)cc1 [Compound 138, 1-([[(2S)-1-[(2S,4R)-4-hydroxy-2-([[4-(4-methyl-1,3-thiazol-5-yl)phenyl]methyl]carbamoyl)pyrrolidin-1-yl]-3,3-dimethyl-1-oxobutan-2-yl]carbamoyl]methyl)-N-[[3-(2-[2-[(1-methanesulfonylpyrrol-3-yl)formamido]acetamido]-1,3-thiazol-4-yl)-[1,1-biphenyl]-3-yl]methyl]piperidine-4-carboxamide] | 1 to 10 µM | B (‘B’ = Maximum degradation ≥50% and ≤75%) | 1 to 10 µM | 50 to 75%
Cc1ncsc1-c1ccc(CNC(=O)[C@@H]2C[C@@H](O)CN2C(=O)[C@@H](NC(=O)COCCOCC(=O)NCCOc2cc(-c3cccc(-c4csc(NC(=O)CNC(=O)c5ccn(S(C)(=O)=O)c5)n4)c3)ccn2)C(C)(C)C)cc1 [Compound 71, N-(2-((4-(3-(2-(((S)-13-((2S,4R)-4-hydroxy-2-((4-(4-methylthiazol-5-yl)benzyl)carbamoyl)pyrrolidine-1-carbonyl)-14,14-dimethyl-4,11-dioxo-6,9-dioxa-3,12-diazapentadecyl)oxy)pyridin-4-yl)phenyl)thiazol-2-yl)amino)-2-oxoethyl)-1-(methylsulfonyl)-1H-pyrrole-3-carboxamide] | > 10 µM | C (‘C’ = Maximum degradation <50%) | > 10 µM | < 50%
CS(=O)(=O)n1ccc(C(=O)N[C@@H](CCOCCCC(=O)N2CCC(CCCCN3CCN(c4ccc5c(c4)C(=O)N(C4CCC(=O)NC4=O)C5=O)CC3)CC2)C(=O)Nc2nc(-c3ccccc3)cs2)c1 (some centres unmarked) [Compound 257] | > 10 µM | C (‘C’ = Maximum degradation <50%) | > 10 µM | < 50%
CS(=O)(=O)n1ccc(C(=O)N[C@@H](CCCCNC(=O)CCCCCCCOc2cccc3c2C(=O)N(C2CCC(=O)NC2=O)C3=O)C(=O)Nc2nc(-c3ccccc3)cs2)c1 (stereo partly drawn) [Compound 289, 8-[[2-(2,6-dioxopiperidin-3-yl)-1,3-dioxoisoindol-4-yl]oxy]-N-[(5S)-5-[(1-methanesulfonylpyrrol-3-yl)formamido]-5-[(4-phenyl-1,3-thiazol-2-yl)carbamoyl]pentyl]octanamide] | > 10 µM | C (‘C’ = Maximum degradation <50%) | > 10 µM | < 50%
CS(=O)(=O)n1ccc(C(=O)N[C@@H](COCCCC(=O)NCCCCCCCCNc2cccc3c2C(=O)N(C2CCC(=O)NC2=O)C3=O)C(=O)Nc2nc(-c3ccccc3)cs2)c1 (stereo partly drawn) [Compound 186, N-(8-[[2-(2,6-dioxopiperidin-3-yl)-1,3-dioxoisoindol-4-yl]amino]octyl)-4-[(2S)-2-[(1-methanesulfonylpyrrol-3-yl)formamido]-2-[(4-phenyl-1,3-thiazol-2-yl)carbamoyl]ethoxy]butanamide] | > 10 µM | C (‘C’ = Maximum degradation <50%) | > 10 µM | < 50%
CS(=O)(=O)n1ccc(C(=O)N[C@@H](COCCCC(=O)NCCCCNc2ccc3c(c2)C(=O)N(C2CCC(=O)NC2=O)C3=O)C(=O)Nc2nc(-c3ccccc3)cs2)c1 (stereo partly drawn) [Compound 229, N-(4-[[2-(2,6-dioxopiperidin-3-yl)-1,3-dioxoisoindol-5-yl]amino]butyl)-4-[(2S)-2-[(1-methanesulfonylpyrrol-3-yl)formamido]-2-[(4-phenyl-1,3-thiazol-2-yl)carbamoyl]ethoxy]butanamide] | > 10 µM | C (‘C’ = Maximum degradation <50%) | > 10 µM | < 50%
Cc1ncsc1-c1ccc(CNC(=O)[C@@H]2C[C@@H](O)CN2C(=O)[C@@H](NC(=O)COCCOCCOCCOCC(=O)NCc2cccc(-c3cccc(-c4csc(NC(=O)CNC(=O)c5ccn(S(C)(=O)=O)c5)n4)c3)c2)C(C)(C)C)cc1 [Compound 121, N1-((S)-1-((2S,4R)-4-hydroxy-2-((4-(4-methylthiazol-5-yl)benzyl)carbamoyl)pyrrolidin-1-yl)-3,3-dimethyl-1-oxobutan-2-yl)-N14-((3′-(2-(2-(1-(methylsulfonyl)-1H-pyrrole-3-carboxamido)acetamido)thiazol-4-yl)-[1,1′-biphenyl]-3-yl)methyl)-3,6,9,12-tetraoxatetradecane-1,14-diamide] | 1 to 10 µM | B (‘B’ = Maximum degradation ≥50% and ≤75%) | 1 to 10 µM | 50 to 75%
Cc1ncsc1-c1ccc(CNC(=O)[C@@H]2C[C@@H](O)CN2C(=O)[C@@H](NC(=O)CCCCCCCCCCC(=O)NCCCC[C@H](NC(=O)c2ccn(S(C)(=O)=O)c2)C(=O)Nc2nc(-c3ccccc3)cs2)C(C)(C)C)cc1 [Compound 265] | > 10 µM | C (‘C’ = Maximum degradation <50%) | > 10 µM | < 50%
